The values below come from patent US8124111B2, “Immunomodulation by altering sphingosine 1-phosphate lyase (SPL) activity” (Children's Hospital & Research Center at Oakland, priority 2005, dated 2012).

SMILES strings stand for the structures.

Data set [1] has as its target T1, SPL (Homo sapiens, UniProt O95470).
T1 sequence (O95470 1-568): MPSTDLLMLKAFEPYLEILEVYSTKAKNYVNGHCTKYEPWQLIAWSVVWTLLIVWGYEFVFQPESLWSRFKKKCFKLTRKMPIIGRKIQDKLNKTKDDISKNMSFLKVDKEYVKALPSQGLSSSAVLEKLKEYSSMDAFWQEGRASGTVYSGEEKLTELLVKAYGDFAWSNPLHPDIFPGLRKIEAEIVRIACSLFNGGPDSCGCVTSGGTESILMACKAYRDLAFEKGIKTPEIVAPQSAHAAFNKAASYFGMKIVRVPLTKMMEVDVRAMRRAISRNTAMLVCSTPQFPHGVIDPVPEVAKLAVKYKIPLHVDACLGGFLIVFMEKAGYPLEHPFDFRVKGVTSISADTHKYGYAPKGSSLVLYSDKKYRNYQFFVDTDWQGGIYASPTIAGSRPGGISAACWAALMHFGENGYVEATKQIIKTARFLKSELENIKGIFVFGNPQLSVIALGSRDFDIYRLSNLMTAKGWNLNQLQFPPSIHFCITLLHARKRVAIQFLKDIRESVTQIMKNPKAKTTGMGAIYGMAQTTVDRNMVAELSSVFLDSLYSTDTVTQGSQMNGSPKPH
The settings on record: cited from earlier work.

For data set [2], the system named is human SPL luciferase reporter construct. Nature of the data set: SPL gene expression, human SPL luciferase reporter in HEK293 cells. Type of data set: cell-based. The conditions noted are these: 0.3 μM or 3.0 μM, 24 hours. As to the method:
(A) SPL gene expression. HEK293 cells were co-transfected with a human SPL luciferase reporter construct and the sea pansy luciferase reporter as a control for transfection efficiency. Twenty-four hours after transfection, cells were treated with 0.3 μM FTY720, 3.0 μM FTY720 or vehicle and incubated for another 24 hours at 37° C. Luciferase activity was then determined as a measure of expression, as described in Experimental Methods. Values shown are luciferase activity normalized to sea pansy luciferase; (B) SPL protein expression. Thymic extracts from control mice (time 0) and mice treated with FTY720 for 24 hours were evaluated for SPL protein expression by immunoblotting. Actin was used as a loading control.
SPL expression: To evaluate the effect of FTY720 and FTY720-P on SPL gene expression, HEK293 cells were treated for 30 minutes with 3 μM of either drug, followed by transfection with pSPL-BamHI, a human SPL-luciferase reporter construct. After 48 hours, reporter expression was determined by luciferase activity as described (Oskouian et al., (2005) J Biol Chem 280, 18403-18410)). Western blotting of mouse tissue extracts was performed using a 1:2000 dilution of polyclonal sera raised against the murine SPL C-terminal peptide: (NH2)—V-T-Q-G-N-Q-M-N-G-S—P—K—P—R—(COOH). [SEQ ID NO:11] […]
(In general: Reporter assays use an easily measured gene product as a stand-in for the process of interest.)

Data set [3] has as its target T1, SPL. Briefly: FTY720-P metabolism: stability in the presence of SPL, recovery quantified by HPLC. Type of data set: biochemical. Also noted: expressed in transfected cells; host or cells: HEK293 infected with adenoviral vector. The settings on record: for stability in the presence of SPL (amount recovered by HPLC): incubated 0-24 hours with extracts of HEK293 cells overexpressing human SPL, standard SPL reaction conditions. Here is the method:
(A) Twenty nanomoles of FTY720-P were incubated with SPL enzyme for 0-24 hours under standard SPL reaction conditions in the absence of dihydrosphingosine 1-phosphate substrate. At the indicated times the reaction was stopped, and FTY720-P was recovered and quantified by HPLC. (B) Twenty nanomoles of S1P were incubated with extracts from cells overexpressing SPL for 0-24 hours, or alternatively, with extracts from cells containing pcDNA3.0 vector control which had no appreciable SPL activity (PC) for 2 hours. S1P was recovered and quantified by HPLC.
FTY720-P metabolism: Whole cell extracts of HEK293 cells stably overexpressing human SPL were prepared as previously described (Reiss et al., (2004) J Biol Chem 279, 1281-1290). These extracts contained approximately 700 picomoles/mg protein/minute of SPL activity. Twenty nanomoles FTY720-P were suspended in SPL reaction buffer (Van Veldhoven et al., (1991) J Biol Chem 266, 12502-12507), and 25 microliters of whole cell extract were added to initiate the reaction. At various time points, reaction was stopped by addition of a 2 ml mixture of chloroform and methanol (2:1 v/v), 1 ml of 1M KCl, 0.1 ml concentrated HCl. Sample was mixed by vortexing and centrifuged at 1200 rpm for 5 min. […] After derivatization with OPA, the sample was injected onto the HPLC for quantification. The HPLC analysis was conducted using a Beckman (Torrance, Calif., USA) system Gold 125 solvent module with a Spectra-Physics SP8410 fluorescence detector and a C18 (2) Luna 3 μm, 75×4.6 mm column from Phenomenex (CA). […] Recovery of S1P was determined by HPLC quantitation, as described below for S1P measurements in mouse tissues.
Confirmation of FTY720-P by LCMS: Samples corresponding to FTY720-P peak identified on HPLC were evaluated by LCMS to confirm FTY720-P by mass analysis. Twenty microliters of sample were injected into the LCMS and mass spectrum scans from 300 to 500 m/z and specific ions m/Z 388 and 410 were quantified for FTY720-P. A reverse phase C18 column from Phenomenex (2.1 mm×15 cm) was used. […]

The target of data set [4] is T1, SPL. Nature of the data set: Inhibition of SPL activity in vitro (whole cell extracts of HEK293 cells with human SPL adenoviral construct). Type of data set: biochemical. Also noted: expressed in transfected cells; host or cells: HEK293 infected with adenoviral vector. Here is the method:
Various concentrations of FTY720 or its phosphorylated derivative (FTY720P) were incubated for 30 minutes on ice with whole cell extracts containing high SPL activity by virtue of a human SPL adenoviral expression construct. SPL activity was determined. (A) FTY720; (B) FTY720-P.
SPL enzyme assay: Tissues were homogenized by sonication in 9 volumes of ice-cold homogenization buffer (5 mM MOPS pH 7.5, 1 mM DTT, 1 mM EDTA, 0.25 M sucrose, and 5 micrograms/ml each chymostatin, leupeptin, pepstatin A and antipain). SPL assays were conducted using 50 micrograms protein per assay and radioactive [4,5 ^3H]DHS1P substrate, as described previously (Reiss et al., (2004) J Biol Chem 279, 1281-1290). For in vitro FTY720 and FTY720-P experiments, drug was incubated with whole cell extracts prepared from HEK293 cells infected with an adenoviral vector expressing human SPL. These extracts contained approximately 200 picomoles/mg protein/minute SPL activity. Drug was incubated with extracts for 30 minutes, followed by addition of extracts to reaction buffer and substrate to initiate the reaction.
Although treatment with FTY720 was associated with low (nanomolar) circulating drug levels, it was possible that local concentrations within cells and subcellular compartments may have been considerably higher, since FTY720 has been reported to be actively transported into cells by the actions of drug transporters that recognize long chain bases (Honig et al., (2003) J Clin Invest 111, 627-637).

In data set [5] the test system is C3H murine splenocytes and thymocytes.
Protocol: Cellular Immune Functions—Mitogen Induced Lymphoproliferation: Spleen and thymus tissues were harvested from wild type C3H mice, and cell suspensions were prepared as described previously (Mishell et al., (1980) in Selected Methods in Cellular Immunology (Mishell, B., and Shiigi, S., eds), pp. 3-27, WH Freeman and Company, San Francisco). Cells were dispersed in sterile medium in 96 well microtiter plates (Falcon) at a concentration of 1×10^6 cells/ml for spleen and 5×10^6 cells/ml for thymus. […] Cell proliferation was determined after 48 and 72 hours using the Cell Titer 96 Non-Radioactive Cell Proliferation Assay from Promega (Mannheim, Germany), according to the manufacturer's instructions.

Turning to `CCCCCCCCCCCCCCCC(=O)N[C@@H](CO)[C@H](O)C1=C(CCCCCCCCCCCCC)C1` [C16-cyclopropenylceramide], the “altering SPL activity” value at SPL [1] is on record as “capable of altering SPL activity”.
`CCCCCCCCc1ccc(CC[C@](N)(CO)COP(=O)(O)O)cc1` [FTY720-P]: in data set [2], the “SPL gene expression (luciferase activity normalized to sea pansy luciferase)” value is given as “not affected”. Further, the “stability in the presence of SPL (amount recovered by HPLC)” value on SPL [3] is “remained stable for up to 24 hours”. For the same molecule, the “substrate for SPL” value on SPL [3] (standard conditions) is reported as “did not serve as a substrate for SPL”. The “dose dependence of SPL inhibition in vitro” value at SPL [4] is “not dose-dependent”. The “only concentration that was inhibitory to SPL activity in vitro” value on SPL [4] (30 minutes incubation with extracts) came out at 30 µM.
As to `CCCCCCCCCCCCCC1=C([C@@H](O)[C@H](CO)NC(=O)CCCCCCC)C1` [GT11, C8-cyclopropenylceramide], the “non-specific cytotoxic effects (light microscopy)” value in data set [5] was “negligible”. In addition, in data set [5] (two different dosages, 24 hours preincubation, 1 or 10 μg/ml LPS, read after 48 and 72 hours), the LPS-stimulated lymphoproliferation result is “reduced”. The “altering SPL activity” value on SPL [1] is given as “capable of altering SPL activity”.
For `Cc1ncc(CO)c(C)c1O` [deoxypyridoxine], the “altering SPL activity” value at SPL [1] was “capable of altering SPL activity”.
As to `CCCCCCCCCCCCC/C=C/[C@@H](O)[C@@H](N)COP(=O)(O)O` [S1P, Sphingosine-1-phosphate], the “stability in the presence of SPL (amount recovered by HPLC)” value at SPL [3] is “diminished”.
